Assay results from patent publication US20130071328A1, “Propynoic Acid Carbamoyl Methyl-Amides and Pharmaceutical Compositions and Methods Based Thereon” (UNIVERSITY OF SOUTHERN CALIFORNIA, priority 2011, published 2013).

Tests used:
[1] = system: 5637 bladder cancer cell line; assay: MTT cytotoxicity assay, 5637; format: cell-based, human; settings: Homo sapiens, 72 h exposure
From the text: (§1) The human breast cancer cell line MDA-MB-435 and the colon cancer cell line HT29 were purchased from the American Type Cell Culture (Manassas, Va.). Colon cancer cell lines HCT116 p53^+/+ and HCT116 p53^−/− were kindly provided by Dr. Bert Vogelstein (Johns Hopkins Medical Institutions, Baltimore, Md.). The human ovarian carcinoma cell line (HEY), naturally resistant to cisplatin (CDDP), was kindly provided by Dr. Louis Dubeau (USC Norris Cancer Center). The bladder cancer cell lines were kindly provided by Dr. Richard Cote (USC Keck School of Medicine). Cells were maintained as monolayer cultures in the appropriate media: RPMI-1640 (HT29, HCT116 p53^+/+, HCT116 p53^−/−, and HEY cell lines) or DMEM (MDA-MB-435 and UMUC3 cell lines) supplemented with 10% fetal bovine serum (FBS) (HyClone, Road Logan, Utah) at 37° C. in a humidified atmosphere of 5% CO2. To remove the adherent cells from the flask for subculture and counting, cells were washed with PBS without calcium or magnesium, incubated with a small volume of 1×trypsin-EDTA solution (Sigma-Aldrich, St. Louis, Mo.) for 5 min, resuspended with fresh culture medium, and centrifuged at 1200 rpm for 5 min. All experiments were performed using cells in exponential growth phase. Cells were routinely checked for Mycoplasma contamination using PlasmaTest kit (InvivoGen, San Diego, Calif.).
(§2) Cytotoxicity was assessed by MTT assay as described previously. 43 In brief, cells were seeded in 96-well microtiter plates and allowed to attach overnight. Cells were subsequently treated with continuous exposure to corresponding drugs for 72 h. At the end of treatments, an MTT solution (at a final concentration of 0.5 mg/mL) was added to each well, and cells were incubated for 4 h at 37° C. After removal of the supernatant, DMSO was added, and the absorbance was read at 570 nm. All assays were done in triplicate. The IC50 was then determined for each drug from a plot of log(drug concentration) versus percentage of cells killed.

[2] = Pharmacokinetics study after i.p. administration; format: in vivo, mice; settings: mouse, ip
Experimental: To assess the efficacy, tolerability, and pharmacokinetics of these novel compounds following i.p. administration, the pharmacokinetic profile of compounds 4 and 9 was evaluated (Table 3). Mice were treated with compounds 4 and 9 via i.p. injection and serial blood sampling was determined at indicated times after administration. The plasma concentration was determined using a validated liquid chromatography mass spectrometry (LC-MS) method where the lowest level of quantification was 1 ng/mL. One hour following i.p. administration of compounds 4 and 9, their concentrations in the blood were 344 and 6.2 ng/mL, respectively. […] The half-lives of compounds 4 and 9 via i.p. administration were determined to be approximately 3.5 and 9.3 hours, respectively, when a non-compartmental pharmacokinetics analysis was used. The favorable pharmacokinetics profile of compounds 4 and 9 is consistent with the ADMET predictions described previously.
Preliminary pharmacokinetics of compounds 4 and 9 were performed using 18 mice, each time point consisting of two mice. Mice were stratified to various doses given as an i.p. injection of compounds 4 and 9 (24 mg/kg). At the specified time points following drug administration, blood was collected with heparinized syringes. The samples were allowed to settle in 500 μL eppendorf vials and then centrifuged at 1500 rpm for 10 min. The plasma was removed, transferred into new eppendorf tube, and frozen at −80° C. until analysis.

[3] = system: HT29 colon cancer cell line; assay: MTT cytotoxicity assay, HT29; format: cell-based; settings: Homo sapiens, HT-29, 72 h exposure
From the text: as §1, §2

[4] = system: UMUC3 bladder cancer cell line; assay: MTT cytotoxicity assay, UMUC3; format: cell-based; settings: Homo sapiens, 72 h exposure
From the text: as §1, §2

[5] = system: HCT116 p53^+/+ colon cancer cell line; assay: MTT cytotoxicity assay, HCT116 p53+/+; format: cell-based; settings: Homo sapiens, HCT-116, 72 h exposure
From the text: as §1, §2

[6] = system: HEY ovarian cancer cell line; assay: Cytotoxicity assay, HEY; format: cell-based; settings: Homo sapiens
From the text: as §1, §2

[7] = system: doxorubicin-resistant NCI/ADR-RES ovarian cancer cell line; assay: Cytotoxicity assay, NCI/ADR-RES; format: cell-based; settings: Homo sapiens
Experimental: as §2

[8] = system: MDA-MB-435 breast cancer cell line; assay: MTT cytotoxicity assay, MDA-MB-435; format: cell-based, human; settings: for IC50: 72 h exposure
From the text: as §1, §2

[9] = system: HCT116 p53^−/− colon cancer cell line; assay: MTT cytotoxicity assay, HCT116 p53-/-; format: cell-based; settings: Homo sapiens, HCT-116, 72 h exposure
From the text: as §1, §2

[10] = system: OVCAR8 ovarian cancer cell line; assay: In vitro cytotoxicity, OVCAR8; format: cell-based; settings: Homo sapiens, OVCAR-8; Table 4, ovarian cancer panel
Experimental: as §2

[11] = system: OVCAR3 ovarian cancer cell line; assay: In vitro cytotoxicity, OVCAR3; format: cell-based; settings: Homo sapiens, OVCAR-3; Table 4, ovarian cancer panel
Experimental: as §2

MDA-MB-435 cells = assay: Mitochondrial superoxide production (MitoSOX Red); format: cell-based, human; settings: 1.5 μM
Experimental: After drug treatments, a solution of 5 μM MitoSOX Red mitochondrial superoxide indicator (Invitrogen, Carlsbad, Calif.) was added, and cells were incubated for 10 min at 37° C. Cells were then washed three times with Hank's balanced salt solution (HBSS) to remove excess MitoSOX. After washing, cells were either observed under the fluorescence microscope or collected by trypsinization, washed twice with HBSS, and measured for superoxide production using a BD LSRII flow cytometer (BD Biosciences, San Jose, Calif., USA). Data were analyzed with the BD FACSDiva software package (BD Biosciences, San Jose, Calif., USA).

Row | SMILES | IC50 [10] | IC50 [11] | IC50 ([7]; Table 4, ovarian cancer panel) | also measured
1 | C#CC(=O)N(c1ccc(-n2cnnn2)c(C)c1)C(C(=O)NC1CCCC1)c1ccccc1 (stereo not shown) [Compound 9, N-[2-(Cyclopentylamino)-2-oxo-1-phenylethyl]-N-[3-methyl-4-(1Htetraazol-1-yl)phenyl]Propynamide] |  |  |  | IC50 [1]: 400 ± 100 nM; AUC ([2]; in vivo, 24 mg/kg): 124.9 ng·h/mL; Cmax ([2]; in vivo, 24 mg/kg): 6.2 ng/mL; Tmax ([2]; in vivo, 24 mg/kg): 5 h; half-life ([2]; in vivo, 24 mg/kg): ~558 min; t1/2 ([2]; in vivo, 24 mg/kg): 9.3 h; concentration at 1 h ([2]; plasma, mice, 24 mg/kg i.p., 1 hour, read-out: concentration in the blood one hour following i.p. administration): 6.2 ng/mL; IC50 [3]: 1.5 ± 1.1 µM; IC50 [4]: 7.8 ± 1.8 µM; IC50 [5]: 7.2 ± 0.2 µM; IC50 ([6]; MTT, 72 h exposure (Table 2)): 1900 ± 300 nM; IC50 ([7]; MTT, 72 h exposure (Table 2)): 1000 ± 700 nM; cytotoxic potency in MDA-MB-435 cells [8]: most potent analogue; IC50 [8]: 0.6 ± 0.3 µM; IC50 ([8]; Homo sapiens, MDA-MB-435, 72 h): 0.6 to 6.3 µM; IC50 [9]: 5.7 ± 0.9 µM
2 | C#CC(=O)N(c1ccccc1F)C(C(=O)NC1CCCCC1)c1ccccc1F (stereo not shown) [Compound 19, N-[2-(Cyclohexylamino)-1-(2-fluorophenyl)-2-oxoethyl]-N-(2-fluorophenyl)Propynamide] |  |  |  | IC50 [1]: 2100 nM; IC50 [3]: 7.7 ± 0.5 µM; IC50 [4]: > 20 µM; IC50 [5]: 11.9 ± 0.1 µM; IC50 ([6]; MTT, 72 h exposure (Table 2)): 5600 ± 2100 nM; IC50 ([7]; MTT, 72 h exposure (Table 2)): 400 ± 100 nM; IC50 ([8]; Homo sapiens, MDA-MB-435, 72 h): 6.5 ± 2.1 µM; IC50 [9]: 10.1 ± 2.9 µM
3 | C#CC(=O)N(c1ccc(-n2cnnn2)c(C)c1)C(C(=O)NC1CCCC1)c1ccc(F)cc1 (stereo not shown) [Compound 21] | 2200 nM | 3100 nM | 520 nM | IC50 ([6]; Table 4, ovarian cancer panel): 310 nM
4 | C#CC(=O)N(c1ccc(-n2cnnn2)c(C)c1)C(C(=O)NC1CCCC1)c1ccc(F)c(F)c1 (stereo not shown) [Compound 22] | 1500 nM | 2500 nM | 320 nM | IC50 ([6]; Table 4, ovarian cancer panel): 330 nM
5 | C#CC(=O)N(c1ccc(-n2cnnn2)c(C)c1)C(C(=O)NC1CCCC1)c1cccc(F)c1 (stereo not shown) [Compound 23] | 1500 nM | 250 nM | 2000 nM | IC50 ([6]; Table 4, ovarian cancer panel): 720 nM
6 | C#CC(=O)N(c1ccc(-n2cnnn2)c(C)c1)C(C(=O)NC1CCCC1)c1c(F)c(F)c(F)c(F)c1F (stereo not shown) [Compound 24] | 5000 nM | 600 nM | 450 nM | 
7 | C#CC(=O)N(C)C(C(=O)NC1CCCC1)c1cccs1 (stereo not shown) [Compound 25] | 2200 nM | 530 nM | 320 nM | 
8 | C#CC(=O)N(c1cccc(O)c1)C(C(=O)NC1CCCC1)c1cccs1 (stereo not shown) [Compound 26] | 2200 nM | 1500 nM | 320 nM | 
9 | C#CC(=O)N(c1cc(OC)c(OC)c(OC)c1)C(C(=O)NC1CCCC1)c1cccs1 (stereo not shown) [Compound 27] | 2200 nM | 420 nM | 330 nM | 
10 | C#CC(=O)N(CC(=O)NC1CCCC1)c1ccc(OC)cc1OC [Compound 28] | 520 nM | 230 nM | 20 nM | 
11 | C#CC(=O)N(CC(=O)NC1CCCC1)c1ccc(-n2cnnn2)c(C)c1 [Compound 30] | 10000 nM | 3000 nM | 1800 nM | 
12 | C#CC(=O)N(c1ccc(-n2cnnn2)c(C)c1)C(C(=O)NC1CCCC1)c1cccnc1 (stereo not shown) [Compound 31] | 1500 nM | 2500 nM | 2500 nM | 
13 | C#CC(=O)N(c1ccc(C(N)=O)cc1)C(C(=O)NC1CCCC1)c1ccccc1 (stereo not shown) [Compound 34] | 1200 nM | 2500 nM | 2500 nM | 
14 | C#CC(=O)N(c1cc(OC)cc(OC)c1)C(C(=O)NC1CCCCC1)c1ccc(OC)c(O)c1 (stereo not shown) [Compound 35] | 2900 nM | 7500 nM | 5500 nM | 
15 | C#CC(=O)NCC(=O)N(c1ccc(OC)cc1OC)C(C(=O)NC1CCCC1)c1cccs1 (stereo not shown) [Compound 36] | 3100 nM | 2300 nM | 8500 nM | 
16 | C#CC(=O)NCCC(=O)N(c1ccc(OC)cc1OC)C(C(=O)NC1CCCC1)c1cccs1 (stereo not shown) [Compound 37] | 1500 nM | 2300 nM | 9000 nM | 
17 | C#CC(=O)N(c1ccc(OC)cc1OC)C(C(=O)NCC(=O)OCC)c1cccs1 (stereo not shown) [Compound 38] | 2800 ± 700 nM | 320 nM | 2600 ± 1500 nM | 
18 | C#CC(=O)N(c1ccc(OC)cc1OC)C(C(=O)NCC(=O)O)c1cccs1 (stereo not shown) [Compound 39] | 6000 nM | > 10000 nM | 8000 nM | 
19 | C#CC(=O)N(CC(=O)NCC(=O)OCC)c1ccc(OC)cc1OC [Compound 43] | 2200 nM | 300 nM | 140 nM | 
20 | C#CC(=O)N(CC(=O)NCC(=O)OCC)c1ccc(-n2cnnn2)c(C)c1 [Compound 44] | > 10000 nM | > 10000 nM | 6300 nM | 
21 | CC(=O)O[C@H]1C(=O)[C@@]2(C)[C@H]([C@H](OC(=O)c3ccccc3)[C@]3(O)C[C@H](OC(=O)[C@H](O)[C@@H](NC(=O)c4ccccc4)c4ccccc4)C(C)=C1C3(C)C)[C@]1(OC(C)=O)CO[C@@H]1C[C@@H]2O [paclitaxel, reference compound] |  |  |  | mitochondrial superoxide, fluorescence microscopy (MDA-MB-435 cells): only induced a minor amount of mitochondrial superoxide
